Results as given in patent publication US9409905B2, “Antibacterial compounds and methods for use” (PTC THERAPEUTICS, INC., priority 2011, dated 2016).

Tests used:
K. pneumoniae MXX1232 = assay: Antibacterial activity, MIC, resistant strain (Table 4); assay type: cell-based; conditions: Klebsiella pneumoniae, MXX1232; resistant K. pneumoniae MMX1232, multi-drug resistant clinical isolate; read-out: MIC, MMX1232
From the text: (§1) The antibacterial activity from a microbroth dilution method may be presented as the minimum inhibitory concentration (MIC in μg/mL). The MIC value is the lowest concentration of drug which prevents macroscopically visible growth under test conditions.
(§2) Antibacterial activity of test compounds against the Gram-negative Acinetobacter baumannii (A. baumannii) BAA747 and Klebsiella pneumoniae (K. pneumoniae) 35657 bacterium and the resistant A. baumannii MXX2240 and K. pneumoniae MXX1232 strains are shown in Table 4. The MMX strains are multi-drug resistant clinical isolates.

A. baumannii MXX2240 = assay: as above; assay type: cell-based; conditions: Acinetobacter baumannii, MXX2240; resistant A. baumannii MMX2240, multi-drug resistant clinical isolate; read-out: MIC, MMX2240
From the text: as §1, §2

E. coli 25922 = assay: Antibacterial activity, microbroth dilution MIC (Table 1); assay type: cell-based, Escherichia coli; conditions: Escherichia coli; microbroth dilution; control Gram-negative E. coli 25922 strain; read-out: MIC, 25922
Outline: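 MIC (μg/mL) read as lowest concentration with no macroscopically visible growth; microbroth dilution format. E. coli 25922 served as control Gram-negative strain.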

[1] = system: Acinetobacter baumannii (A. baumannii) BAA747; assay: Antibacterial activity, MIC (Table 4); assay type: cell-based; conditions: A. baumannii BAA747, read-out: MIC, BAA747
From the text: as §1, §2

[2] = system: Klebsiella pneumoniae (K. pneumoniae) 35657; assay: Antibacterial activity, MIC (Table 4); assay type: cell-based; conditions: K. pneumoniae 35657, read-out: MIC, 35657
From the text: as §1, §2

E. coli LZ3111 = assay: Antibacterial activity, MIC, quinolone resistant strain (Table 2); assay type: cell-based; conditions: Escherichia coli, LZ3111, read-out: MIC LZ3111
Outline: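 Broth microdilution. Read-out: MIC in μg/mL, taken as lowest concentration with no macroscopically visible growth.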

[3] = system: Escherichia coli (E. coli) BAS849; assay: Antibacterial activity, microbroth dilution MIC (Table 1); assay type: cell-based; conditions: microbroth dilution, super sensitive Gram-negative E. coli BAS849, read-out: MIC, BAS849
Outline: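 MIC (μg/mL) is taken as the lowest concentration with no macroscopically visible growth. Strains tested by microbroth dilution: Gram-positive S. aureus 29213, control Gram-negative E. coli 25922, and super-sensitive E. coli BAS849.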

[4] = system: Staphylococcus aureus (S. aureus) 29213; assay: as above; assay type: cell-based; conditions: microbroth dilution, Gram-positive S. aureus 29213, read-out: MIC, 29213
Outline: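 Potency is reported as minimum inhibitory concentration in μg/mL, determined by broth microdilution as the lowest level of compound that stops growth visible to the eye.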

[5] = system: Pseudomonas aeruginosa (P. aeruginosa) 27853; assay: Antibacterial activity, MIC (Table 5); assay type: cell-based; conditions: P. aeruginosa 27853, read-out: MIC, 27853
From the text: as §1
Antibacterial activity of test compounds against the Gram-negative bacterium Pseudomonas aeruginosa (P. aeruginosa) 27853 is shown in Table 5.

Measured: MIC

CC(C)c1c(-c2ccc3c(c2)cc(CN(C)C)n3C)[nH]c(=O)c(C(=O)O)c1O [Cpd 318, 6-(2-((dimethylamino)methyl)-1-methyl-1H-indol-5-yl)-4-hydroxy-5-isopropyl-2-oxo-1,2-dihydropyridine-3-carboxylic acid]
1 to 3.5 µg/mL: E. coli 25922
< 1 µg/mL: [3]
3.5 to 12.5 µg/mL: [2]
12.5 to 150 µg/mL: all other assays above

CN(C)Cc1cc2cc(-c3[nH]c(=O)c(C(=O)O)c(O)c3C3CC3)ccc2n1C [Cpd 322, 5-cyclopropyl-6-(2-((dimethylamino)methyl)-1-methyl-1H-indol-5-yl)-4-hydroxy-2-oxo-1,2-dihydropyridine-3-carboxylic acid]
1 to 3.5 µg/mL: [3]
12.5 to 150 µg/mL: all other assays above

C=CCc1c(-c2ccc3c(c2)cc(CN(C)C)n3C)[nH]c(=O)c(C(=O)O)c1O [Cpd 339, 5-allyl-6-(2-((dimethylamino)methyl)-1-methyl-1H-indol-5-yl)-4-hydroxy-2-oxo-1,2-dihydropyridine-3-carboxylic acid]
12.5 to 150 µg/mL: K. pneumoniae MXX1232 | [5]
1 to 3.5 µg/mL: [2]
< 1 µg/mL: E. coli 25922 | [3]
3.5 to 12.5 µg/mL: all other assays above

CCCc1c(-c2ccc3c(c2)cc(CN(C)C)n3C)[nH]c(=O)c(C(=O)O)c1O [Cpd 340, 6-(2-((dimethylamino)methyl)-1-methyl-1H-indol-5-yl)-4-hydroxy-2-oxo-5-propyl-1,2-dihydropyridine-3-carboxylic acid]
12.5 to 150 µg/mL: K. pneumoniae MXX1232 | [1] | [4] | [5]
< 1 µg/mL: [3]
3.5 to 12.5 µg/mL: all other assays above

COCCNCc1cc2cc(-c3[nH]c(=O)c(C(=O)O)c(O)c3C)ccc2n1C [Cpd 341, 4-hydroxy-6-(2-((2-methoxyethylamino)methyl)-1-methyl-1H-indol-5-yl)-5-methyl-2-oxo-1,2-dihydropyridine-3-carboxylic acid]
1 to 3.5 µg/mL: A. baumannii MXX2240
< 1 µg/mL: E. coli LZ3111 | [3]
3.5 to 12.5 µg/mL: E. coli 25922 | [1] | [2]
12.5 to 150 µg/mL: all other assays above

CCNCc1cc2cc(-c3[nH]c(=O)c(C(=O)O)c(O)c3C)ccc2n1C [Cpd 342, 6-(2-((ethylamino)methyl)-1-methyl-1H-indol-5-yl)-4-hydroxy-5-methyl-2-oxo-1,2-dihydropyridine-3-carboxylic acid]
3.5 to 12.5 µg/mL: [1]
1 to 3.5 µg/mL: A. baumannii MXX2240 | E. coli 25922
< 1 µg/mL: [2] | E. coli LZ3111 | [3]
12.5 to 150 µg/mL: all other assays above

Cc1c(-c2ccc3c(c2)cc(CNCCN)n3C)[nH]c(=O)c(C(=O)O)c1O [Cpd 343, 6-(2-((2-aminoethylamino)methyl)-1-methyl-1H-indol-5-yl)-4-hydroxy-5-methyl-2-oxo-1,2-dihydropyridine-3-carboxylic acid]
12.5 to 150 µg/mL: all assays above

CNCCNCc1cc2cc(-c3[nH]c(=O)c(C(=O)O)c(O)c3C)ccc2n1C [Cpd 344, 4-hydroxy-5-methyl-6-(1-methyl-2-((2-(methylamino)ethylamino)methyl)-1H-indol-5-yl)-2-oxo-1,2-dihydropyridine-3-carboxylic acid]
12.5 to 150 µg/mL: all assays above

Cc1c(-c2ccc3c(c2)cc(CNCCN(C)C)n3C)[nH]c(=O)c(C(=O)O)c1O [Cpd 345, 6-(2-((2-(dimethylamino)ethylamino)methyl)-1-methyl-1H-indol-5-yl)-4-hydroxy-5-methyl-2-oxo-1,2-dihydropyridine-3-carboxylic acid]
1 to 3.5 µg/mL: E. coli LZ3111
3.5 to 12.5 µg/mL: [3]
12.5 to 150 µg/mL: all other assays above

COCC(C)NCc1cc2cc(-c3[nH]c(=O)c(C(=O)O)c(O)c3C)ccc2n1C (stereo not drawn) [Cpd 346, 4-hydroxy-6-(2-((1-methoxypropan-2-ylamino)methyl)-1-methyl-1H-indol-5-yl)-5-methyl-2-oxo-1,2-dihydropyridine-3-carboxylic acid]
3.5 to 12.5 µg/mL: A. baumannii MXX2240 | [1] | [2] | E. coli LZ3111
< 1 µg/mL: [3]
12.5 to 150 µg/mL: all other assays above

CCC(C)NCc1cc2cc(-c3[nH]c(=O)c(C(=O)O)c(O)c3C)ccc2n1C (stereo not drawn) [Cpd 347, 6-(2-((sec-butylamino)methyl)-1-methyl-1H-indol-5-yl)-4-hydroxy-5-methyl-2-oxo-1,2-dihydropyridine-3-carboxylic acid]
1 to 3.5 µg/mL: [2] | E. coli LZ3111
3.5 to 12.5 µg/mL: E. coli 25922
< 1 µg/mL: A. baumannii MXX2240 | [1] | [3]
12.5 to 150 µg/mL: all other assays above

Cc1c(-c2ccc3c(c2)cc(CNC(C)C)n3C)[nH]c(=O)c(C(=O)O)c1O [Cpd 348, 4-hydroxy-6-(2-((isopropylamino)methyl)-1-methyl-1H-indol-5-yl)-5-methyl-2-oxo-1,2-dihydropyridine-3-carboxylic acid]
< 1 µg/mL: [3]
3.5 to 12.5 µg/mL: E. coli 25922
12.5 to 150 µg/mL: K. pneumoniae MXX1232 | [4] | [5]
1 to 3.5 µg/mL: all other assays above

Cc1c(-c2ccc3c(c2)cc(CNC(C)CO)n3C)[nH]c(=O)c(C(=O)O)c1O (stereo not drawn) [Cpd 349, 4-hydroxy-6-(2-((1-hydroxypropan-2-ylamino)methyl)-1-methyl-1H-indol-5-yl)-5-methyl-2-oxo-1,2-dihydropyridine-3-carboxylic acid]
1 to 3.5 µg/mL: [3]
3.5 to 12.5 µg/mL: [2] | E. coli LZ3111
12.5 to 150 µg/mL: all other assays above

Cc1c(-c2ccc3c(c2)cc(CNCCO)n3C)[nH]c(=O)c(C(=O)O)c1O [Cpd 350, 4-hydroxy-6-(2-((2-hydroxyethylamino)methyl)-1-methyl-1H-indol-5-yl)-5-methyl-2-oxo-1,2-dihydropyridine-3-carboxylic acid]
3.5 to 12.5 µg/mL: E. coli LZ3111 | [3]
12.5 to 150 µg/mL: all other assays above
